{"source": "patent US12324852B2", "about": "“Administration of benzodiazepine compositions” (Neurelis, Inc., priority 2011, dated 2025)", "origin": "cited, not measured here"}
{"smiles": "Cc1ncc2n1-c1ccc(Cl)cc1C(c1ccccc1F)=NC2", "note": "[Midazolam, 8-chloro-6-(2-fluorophenyl)-1-methyl-4H-imidazo(1,5-a)benzodiazepine]", "values": [{"measurement": "solubility in most aqueous solutions", "setting": "neutral pH (e.g. about 6 to 8)", "result": "relatively insoluble"}, {"measurement": "solubility in water", "setting": "pH lower than about 4", "result": "soluble in water"}]}
